These results are taken from patent US12433882B2, “Treatments for amyotrophic lateral sclerosis using dazucorilant” (Corcept Therapeutics Incorporated, priority 2022, dated 2025).

By inhibition is commonly meant the relative decrease from the control value, in per cent. A high value points to strong suppression. Usually Ki stands for a dissociation constant, usually derived from enzyme kinetics or from competition with a known ligand.

In assay [1] the target is T1, mineralocorticoid receptor (MR) (Homo sapiens, UniProt P08235).
T1 sequence (P08235 1-984): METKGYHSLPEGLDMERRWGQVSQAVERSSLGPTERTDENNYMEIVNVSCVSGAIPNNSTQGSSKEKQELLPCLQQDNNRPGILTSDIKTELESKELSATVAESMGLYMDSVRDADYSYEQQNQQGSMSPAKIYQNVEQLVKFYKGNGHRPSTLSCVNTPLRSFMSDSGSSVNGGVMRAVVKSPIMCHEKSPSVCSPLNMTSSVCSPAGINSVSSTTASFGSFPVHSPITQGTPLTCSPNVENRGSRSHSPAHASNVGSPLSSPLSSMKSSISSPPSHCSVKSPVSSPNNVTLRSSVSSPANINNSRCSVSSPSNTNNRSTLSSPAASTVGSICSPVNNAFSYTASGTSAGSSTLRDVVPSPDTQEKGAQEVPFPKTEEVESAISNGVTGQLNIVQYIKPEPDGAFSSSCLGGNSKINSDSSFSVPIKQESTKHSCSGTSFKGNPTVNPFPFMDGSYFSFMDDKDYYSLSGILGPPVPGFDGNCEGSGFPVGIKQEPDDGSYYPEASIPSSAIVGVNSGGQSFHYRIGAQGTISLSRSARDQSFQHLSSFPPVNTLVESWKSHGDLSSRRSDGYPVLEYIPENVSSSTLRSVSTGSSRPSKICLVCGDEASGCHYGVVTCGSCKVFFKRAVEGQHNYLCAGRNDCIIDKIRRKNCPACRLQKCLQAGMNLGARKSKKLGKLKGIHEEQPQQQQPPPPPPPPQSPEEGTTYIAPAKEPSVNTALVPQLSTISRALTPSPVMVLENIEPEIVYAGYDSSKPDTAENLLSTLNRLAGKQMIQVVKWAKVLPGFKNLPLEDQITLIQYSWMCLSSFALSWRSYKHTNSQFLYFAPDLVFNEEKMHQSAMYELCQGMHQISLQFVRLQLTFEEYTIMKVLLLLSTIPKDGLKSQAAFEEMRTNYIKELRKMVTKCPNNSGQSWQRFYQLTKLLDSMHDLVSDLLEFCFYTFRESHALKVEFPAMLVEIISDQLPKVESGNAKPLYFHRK
As to the kind of experiment: MR reporter gene assay. It counts as cell-based. On the technique in general: Reporter assays use an easily measured gene product as a stand-in for the process of interest.

Assay [2] has as its system cortisol or ACTH levels. As to the kind of experiment: First In Human study Part 2, multiple doses: cortisol and ACTH levels. The following applies: part 2 of the FIH study. It counts as in vivo.
Procedure: An adaptive dose, double-blind, placebo-controlled study (NCT04249323, EudraCT 2019-004258-27) was conducted in 110 healthy male and female volunteers (18-60 years old; BMI 18-30 kg/m2; weight≤102 kg; “First In Human” (FIH) study).
For assay [3], the system named is estrogen receptor. As to the kind of experiment: Estrogen receptor binding. The following applies: 10 μM. The method, then:
Dazucorilant is selective for GR over other nuclear hormone receptors, and a range of other receptors, enzymes, and ion channels. For example, dazucorilant has high selectivity for GR relative to the progesterone receptor (PR), androgen receptor, and estrogen receptor, showing no significant binding to these receptors at a concentration of 10 μM (0%, 1.5% and […], respectively).

Assay [4] addresses T2, GR (Homo sapiens, UniProt P04150).
T2 sequence (P04150 1-777): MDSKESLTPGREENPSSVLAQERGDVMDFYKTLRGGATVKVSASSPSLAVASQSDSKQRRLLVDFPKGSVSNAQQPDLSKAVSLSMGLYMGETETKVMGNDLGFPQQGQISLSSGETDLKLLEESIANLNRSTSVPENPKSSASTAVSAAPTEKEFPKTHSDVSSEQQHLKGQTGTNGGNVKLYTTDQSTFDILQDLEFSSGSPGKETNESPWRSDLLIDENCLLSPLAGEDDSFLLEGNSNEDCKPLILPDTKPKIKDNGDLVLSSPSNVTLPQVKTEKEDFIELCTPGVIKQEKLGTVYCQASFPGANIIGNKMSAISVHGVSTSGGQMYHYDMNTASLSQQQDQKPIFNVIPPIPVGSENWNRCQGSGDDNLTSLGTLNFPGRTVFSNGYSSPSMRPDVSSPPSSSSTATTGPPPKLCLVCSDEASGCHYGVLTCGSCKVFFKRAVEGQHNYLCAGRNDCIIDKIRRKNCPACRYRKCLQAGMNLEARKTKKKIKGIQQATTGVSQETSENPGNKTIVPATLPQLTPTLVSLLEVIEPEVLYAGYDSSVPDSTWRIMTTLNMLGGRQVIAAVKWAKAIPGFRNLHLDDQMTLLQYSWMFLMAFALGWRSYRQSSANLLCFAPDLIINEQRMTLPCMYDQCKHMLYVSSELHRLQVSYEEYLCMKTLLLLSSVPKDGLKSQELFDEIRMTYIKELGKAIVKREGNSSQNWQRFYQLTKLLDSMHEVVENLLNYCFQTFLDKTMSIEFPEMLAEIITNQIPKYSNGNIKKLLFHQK
Put plainly: Inhibition of dexamethasone effect on TAT activity, human liver carcinoma cell line. It counts as cell-based. On the set-up: endogenous in cells; host or cells: human liver carcinoma cell line (probably HepG2, inferred). The following applies: read-out: Ki, inhibition of dexamethasone effects on TAT activity.
Source text: The term “glucocorticoid receptor modulator” (GRM) refers to any compound which modulates glucocorticoid binding to GR, or which modulates any biological response associated with the binding of GR to an agonist. For example, a GRM that acts as an agonist, such as dexamethasone, increases the activity of tyrosine aminotransferase (TAT) in HepG2 cells (a human liver hepatocellular carcinoma cell line; ECACC, UK). A GRM that acts as an antagonist, such as mifepristone, decreases the activity of tyrosine aminotransferase (TAT) in HepG2 cells.

Assay [5] addresses T3, androgen receptor (Homo sapiens, UniProt P10275).
T3 sequence (P10275 1-920): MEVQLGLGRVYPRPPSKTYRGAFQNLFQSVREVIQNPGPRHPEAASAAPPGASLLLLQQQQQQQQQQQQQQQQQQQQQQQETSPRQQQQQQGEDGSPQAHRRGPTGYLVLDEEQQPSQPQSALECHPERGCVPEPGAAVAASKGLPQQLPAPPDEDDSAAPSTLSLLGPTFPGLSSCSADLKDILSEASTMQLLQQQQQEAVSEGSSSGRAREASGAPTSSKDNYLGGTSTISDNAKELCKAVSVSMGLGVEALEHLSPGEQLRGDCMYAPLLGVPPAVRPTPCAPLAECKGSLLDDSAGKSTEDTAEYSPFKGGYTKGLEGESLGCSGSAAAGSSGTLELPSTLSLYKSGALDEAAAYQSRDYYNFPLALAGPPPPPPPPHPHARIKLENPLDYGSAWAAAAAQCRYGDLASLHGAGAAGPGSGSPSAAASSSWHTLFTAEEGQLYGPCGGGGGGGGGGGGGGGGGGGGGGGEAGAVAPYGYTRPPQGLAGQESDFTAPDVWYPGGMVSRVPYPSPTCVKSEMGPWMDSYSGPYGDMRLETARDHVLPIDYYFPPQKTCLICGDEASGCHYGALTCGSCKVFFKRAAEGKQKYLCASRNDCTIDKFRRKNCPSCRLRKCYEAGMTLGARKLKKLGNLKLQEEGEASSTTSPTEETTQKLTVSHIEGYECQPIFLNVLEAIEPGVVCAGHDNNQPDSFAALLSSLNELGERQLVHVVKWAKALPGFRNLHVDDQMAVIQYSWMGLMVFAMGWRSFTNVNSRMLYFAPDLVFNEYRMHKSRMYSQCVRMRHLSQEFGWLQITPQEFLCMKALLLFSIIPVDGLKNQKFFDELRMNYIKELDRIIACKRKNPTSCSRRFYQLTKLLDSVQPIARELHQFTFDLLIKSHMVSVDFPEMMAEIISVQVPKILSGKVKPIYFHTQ
As to the kind of experiment: Androgen receptor binding. The following applies: 10 μM.

Regarding `O=C(c1ccccn1)[C@]12Cc3cnn(-c4ccc(F)cc4)c3C=C1CCN(S(=O)(=O)c1ccc(C(F)(F)F)cc1)C2` [dazucorilant, (R)-(1-(4-fluorophenyl)-6-((4-(trifluoromethyl)phenyl)sulfonyl)-4,4a, 5,6,7,8-hexahydro-1-H-pyrazolo[3,4-g]isoquinolin-4a-yl) (pyridin-2-yl)methanone], testing at 5 µM in assay [1] gave an inhibition of 23%. In assay [2], the “effects on morning or evening cortisol or ACTH levels” value was “no notable effects”. Besides, the “binding to estrogen receptor” value in assay [3] is listed as 37.5%. Moreover, the inhibition constant Ki in assay [4] was determined as 14 nM. Also, the “binding to androgen receptor” value in assay [5] was 1.5%.
